Measured values reported in ChEMBL document CHEMBL4689842, “EUbOPEN Chemogenomics Library wave 1” (2021).

Columns and labels:
Assay type in all cases: toxicity, cell-based
[1] = tested on: U2OS; assay: Incucyte cell viability with U2OS; conditions: human, 10 µM, compound concentration 10 uM
[2] = tested on: Fibroblast; assay: Incucyte cell viability with human fibroblast; conditions: 10 µM, compound concentration 10 uM
[3] = tested on: HEK-293T; assay: Incucyte cell viability with HEK293T; conditions: human, 10 µM, compound concentration 10 uM
[4] = 0 h, replicate number 2, timepoint 0 hours
[5] = 6 h, replicate number 2, timepoint 6 hours
[6] = 12 h, replicate number 1, timepoint 12 hours
[7] = 18 h, replicate number 1, timepoint 18 hours
[8] = 24 h, replicate number 1, timepoint 24 hours
[9] = 0 h, replicate number 1, timepoint 0 hours
[10] = 6 h, replicate number 1, timepoint 6 hours
[11] = 12 h, replicate number 2, timepoint 12 hours
[12] = 18 h, replicate number 2, timepoint 18 hours
[13] = 24 h, replicate number 2, timepoint 24 hours
Also: filed as whole numbers so only -1 and 0 and 1 occur.

Row | SMILES | Growth Rate [1, 4] | Growth Rate [1, 5] | Growth Rate [1, 6] | Growth Rate [1, 7] | Growth Rate [1, 8] | Growth Rate [2, 9] | Growth Rate [2, 10] | Growth Rate [2, 6] | Growth Rate [2, 11] | Growth Rate [2, 7] | Growth Rate [2, 12] | Growth Rate [2, 8] | Growth Rate [3, 9] | Growth Rate [3, 4] | Growth Rate [3, 10] | Growth Rate [3, 6] | Growth Rate [3, 7] | Growth Rate [3, 8] | Growth Rate [1, 12] | Growth Rate [1, 9] | further results
1 | Cc1oncc1C(=O)Nc1ccc(C(F)(F)F)cc1 [LEFLUNOMIDE] | 0 | 1 | 1 | 1 | 1 | 0 | 1 | 1 | 0 | 1 | 0 | 1 | 1 | 0 | 0 | 1 | 1 | 0 |  |  | Growth Rate [2, 5]: 0; Growth Rate [2, 13]: 0; Growth Rate [3, 5]: 1; Growth Rate [3, 12]: 0; Growth Rate [3, 13]: 1
2 | Cc1c(NC(=O)c2cc(C(N)=O)nc3cc(F)ccc23)c(C(F)(F)F)nn1Cc1ccc(C(C)(C)C)cc1 [BAY-588] | 0 |  | 1 | 0 | 1 | 0 | 0 | 0 |  | 0 |  | 0 | 0 |  | 0 | 0 | 0 | 0 | 1 |  | 
3 | O=C(Nc1cccnn1)N1CC(C/C=C/c2cncc(Oc3ccc(C(F)(F)F)cn3)n2)C1 | 1 |  | 1 | 1 | 1 | 0 |  |  | 1 |  | 1 | 1 | 0 | 1 | 0 |  |  | 1 | 0 | 0 | Growth Rate [1, 10]: 0; Growth Rate [1, 13]: 0; Growth Rate [3, 11]: 1
4 | Cc1ccc(-c2ccc3c(ccc4sc5c(c43)NC[C@@H](C)NC5=O)n2)cn1 | 0 |  | 1 | 1 | 1 | 0 |  |  |  |  |  |  | 1 |  |  |  |  |  |  |  | Growth Rate [3, 13]: 1
5 | NC(CCP(=O)(O)O)C(=O)O (racemic) |  | 0 | 1 | 1 | 1 | 0 |  |  |  |  | 1 | 1 | 0 |  | 1 | 1 | 1 | 1 |  | 0 | 
6 | N#Cc1c[nH]c2c(C(=O)N3CCN(CCc4ccc(F)cc4)CC3)cccc12 [PRUVANSERIN] |  | 0 | 1 | 0 | 0 | 0 | 0 | 0 |  | 0 |  | 0 |  | 0 | 0 | 0 | 0 | 0 | 1 | 1 | Growth Rate [1, 11]: 0
7 | CCC(=N\O)/C(C)=C/c1ccc(F)c(C)c1 [A-226] | 1 |  | 1 | 0 | 0 | 0 | 0 | 0 |  | 0 | 1 | 1 |  | 0 | 0 | 0 | 0 | 0 | 1 | 0 | Growth Rate [1, 10]: 0; Growth Rate [1, 13]: 1
8 | O=C1O[C@]2(CC[C@H](C(=O)Nc3ccn(-c4ccccc4F)n3)CC2)c2cnccc21 [MK-0557] | 0 | 1 | 1 | 1 | 0 | 0 | 0 | 0 | 1 | 0 | 1 | 0 | 0 |  | 0 | 0 | 0 | 0 |  |  | Growth Rate [1, 13]: 1; Growth Rate [2, 13]: 1
9 | COc1cc(-c2cn(C)c(=O)c3cnccc23)c(OC)cc1CN(C)C |  | 1 | 1 | 0 | 1 | 0 | 0 | 0 |  | 0 |  | 0 | 1 |  |  | 1 | 0 | 0 | 1 | 0 | Growth Rate [1, 10]: 0; Growth Rate [2, 5]: 1; Growth Rate [3, 5]: 1; Growth Rate [3, 13]: 1
10 | O=c1ccn([C@@H]2O[C@H](COP(=O)([O-])OP(=O)([O-])O)[C@@H](O)[C@H]2O)c(=O)[nH]1.[Na+].[Na+] | 0 | 1 | 1 | 0 | 1 | 0 |  |  | 1 | 1 |  | 1 | 1 | 0 | 0 | 1 | 1 | 1 | 1 | 1 | Growth Rate [1, 10]: 0; Growth Rate [2, 5]: 1; Growth Rate [3, 5]: 1
